# Test system: normal human melanocytes
# Assay: Melanin production inhibition test using cultured normal human melanocytes (14C-thiouracil incorporation)
# Format: cell-based
# Conditions: control = 100%; for activity at 5 µM: addition amount 5.0 μM; for activity at 20 µM: addition amount 20 μM; for activity at 10 µM: addition amount 10 μM; for activity at 3.1 µM: addition amount 3.1 μM; for activity at 1.6 µM: addition amount 1.6 μM; for activity at 8 µM: addition amount 8.0 μM
# Protocol: The inhibitory effect on melanin production of the melanin production inhibitor of the present invention can be measured using thiouracil which is incorporated specifically into cells in a melanin synthesis process in the cells. For example, the amount of melanin production can be measured by measuring an amount of thiouracil incorporated into cells by measuring an amount of radiation with radiolabeled thiouracil.
# The inhibitory effect on melanin production of Compound 1 was evaluated using 2-thiouracil (^14C-labeled 2-thiouracil was used in this test) which is incorporated specifically into melanin in an intracellular melanin synthesis process. Complete medium for culture of melanocytes (manufactured by Kurabo Industries Ltd.) was added to 15 wells in a 24-well plate in an amount of 2 mL per well, and normal human melanocytes (manufactured by Kurabo Industries Ltd.) were seeded into the wells at a concentration of 1.5×10^4 cells/cm^2. The cells were cultured in a 5% carbon dioxide atmosphere at 37° C. for 24 hours. Thereafter, the medium in all the wells was exchanged under the following conditions: fresh complete medium for culture of melanocytes (control) was used in three wells; each of complete medium for culture of melanocytes, which including Compound 1 at concentrations of 1.0 μM, 2.0 μM, and 4.0 μM, was used in a total of nine wells including three wells for each concentration; and complete medium for culture of melanocytes, each of which including arbutin (positive control) known as a melanin production inhibitor at a concentration of 0.5 mM (500 μM), was used in the other three wells. Further, 2-[2-^14C]thiouracil (^14C-labeled thiouracil) was added to each of these 15 wells at 0.25×10^−6 Ci (curie). Then, the cells were cultured for further 3 days under the same conditions as the above. After the completion of culture, the culture medium was removed from the wells, and the cells were washed with phosphate buffered physiological saline (PBS) and then separated from the bottoms of the wells with medium including trypsin and EDTA to prepare cell suspensions, followed by centrifugation to collect the cells. The number of the cells was counted using a hemocytometer. Thereafter, the amounts of ^14C-thiouracil in the cells collected from each well (0.25×10^−6 Ci) were measured using a liquid scintillation counter (ALOKA CO., LTD.). The percentages of an amount of radioactivity in the cells cultured in the medium including the test substances with respect to an amount of radioactivity in the cells collected from the well of the control were calculated as amounts of melanin (%). That is, as the amount of radioactivity incorporated into the cells is smaller, the amount of melanin is evaluated to be smaller, i.e., the melanin inhibition effect of the component added is evaluated to be larger.
# Inhibitory effects on melanin production of Compounds 2 to 39 (however, the effects of Compound 9 and 15 were not measured) were examined in the same procedure as in Test Example 1.
# These were examined in the same procedure as in Test Example 1.
# Further, the results of melanin production inhibition by treatment with the respective test compounds, determined in the same procedure as in Test Example 1, are also shown in the table.
# [1] = Homo sapiens, Melanocyte, Table 2
compound,measurement,setting,value
"CC(c1ccccc1)(c1ccc(O)cc1)c1ccc(O)cc1 [4,4′-(1-Phenylidene)-bisphenol]",Amount of melanin,"Table 3, addition amount 3.0 μM",44.8 ± 1.0%
"Oc1ccc(C2(c3ccc(O)cc3)CCCCC2)cc1 [4,4′-Cyclohexylidenebisphenol]",activity at 3 µM,"Homo sapiens, Melanocyte, Table 3, addition amount 3.0 μM",38.3 ± 2.5%
"CC(c1ccc(O)cc1)c1ccc(O)cc1 [4,4′-Ethylidenebisphenol]",activity at 25 µM,"Homo sapiens, Melanocyte, Table 3, addition amount 25 μM",30.5 ± 6.1%
Oc1ccc(C(c2ccccc2)(c2ccccc2)c2ccccc2)cc1 [4-Tritylphenol],activity at 1.25 µM,"Homo sapiens, Melanocyte, Table 3, addition amount 1.25 μM",27 ± 0.4%
"OC[C@H]1O[C@@H](Oc2ccc(O)cc2)[C@H](O)[C@@H](O)[C@@H]1O [Arbutin, arbutin, reference compound]",activity at 500 µM,"Homo sapiens, Melanocyte, addition amount 500 μM, mean ± SD of three samples",64.6 ± 2.3%
"c1ccc(C(c2ccccc2)(c2ccccc2)N2CCNCC2)cc1 [Compound 7, 1-(triphenylmethyl)piperazine]",activity at 6 µM,"Homo sapiens, Melanocyte, Table 2, addition amount 6.0 μM",51.1 ± 5.8%
"c1ccc(C(c2ccccc2)(c2ccccc2)N2CCOCC2)cc1 [Compound 8, N-(triphenylmethyl)morpholine]",activity at 2.5 µM,"Homo sapiens, Melanocyte, Table 2, addition amount 2.5 μM",39.2 ± 10.7%
"c1ccc(C(c2ccccc2)(c2ccncc2)N2CCCCC2)cc1 [Compound 10, 1-{[diphenyl(4-pyridyl)]methyl}piperidine]",activity at 0.3 µM,"Homo sapiens, Melanocyte, Table 2, addition amount 0.3 μM",77.3 ± 0.4%
"O=C1CCC(=O)N1C(c1ccccc1)(c1ccccc1)c1ccccc1 [Compound 11, 1-(triphenylmethyl)succinimide]",activity at 15 µM,"Homo sapiens, Melanocyte, Table 2, addition amount 15 μM",53.7 ± 0.9%
"O[C@@H]1CCN(C(c2ccccc2)(c2ccccc2)c2ccccc2)C1 [Compound 12, (R)-1-triphenylmethyl-3-pyrrolidinol]",activity at 5 µM,[1],62.9 ± 3.7%
"OC(c1ccccc1)c1ccc2ccccc2c1 (stereo not shown) [Compound 13, [(naphthyl)phenyl]methanol]",activity at 20 µM,[1],68.7 ± 5.2%
"OC(c1ccccc1)(c1ccccn1)c1ccccn1 [Compound 16, di(2-pyridyl)phenylmethanol]",activity at 100 µM,"Homo sapiens, Melanocyte, Table 2, addition amount 100 μM",91.5 ± 4.6%
"COc1ccc(C(O)(c2ccccc2)c2ccccc2)cc1 [Compound 17, [diphenyl(4-methoxyphenyl)]methanol]",activity at 10 µM,[1],37 ± 1.5%
"COc1ccc(C(O)(c2ccccc2)c2ccc(OC)cc2)cc1 [Compound 18, [bis(4-methoxyphenyl)phenyl]methanol]",activity at 10 µM,[1],55.3 ± 3.4%
"COc1ccc(C(c2ccccc2)(c2ccccc2)N2CCCCC2)cc1 [Compound 19, 1-[[(4-methoxyphenyl)diphenyl]methyl]piperidine]",activity at 3.1 µM,[1],51.5 ± 5.7%
"COc1ccc(C(c2ccccc2)(c2ccc(OC)cc2)N2CCCCC2)cc1 [Compound 20, 1-[[bis(4-methoxyphenyl)phenyl]methyl]piperidine]",activity at 3.1 µM,[1],73.2 ± 3.2%
"COc1ccc(C(c2ccc(OC)cc2)(c2ccc(OC)cc2)N2CCCCC2)cc1 [Compound 21, 1-[tris(4-methoxyphenyl)methyl]piperidine]",activity at 12.5 µM,"Homo sapiens, Melanocyte, Table 2, addition amount 12.5 μM",53.5 ± 0.4%
"Cc1ccc(C(O)(c2ccc(C)cc2)c2ccc(C)cc2)cc1 [Compound 22, tris(4-methylphenyl)methanol]",activity at 1.6 µM,[1],50.6 ± 2%
"Cc1ccc(C(O)(c2ccccc2)c2ccc(C)cc2)cc1 [Compound 23, [bis(4-methylphenyl)phenyl]methanol]",activity at 3.1 µM,[1],47.2 ± 0.2%
"Cc1ccc(C(O)(c2ccccc2)c2ccccc2)cc1 [Compound 24, [diphenyl(4-methylphenyl)]methanol]",activity at 3.1 µM,[1],51.6 ± 1.6%
"Cc1ccc(C(c2ccccc2)(c2ccccc2)N2CCCCC2)cc1 [Compound 25, [[diphenyl(4-methylphenyl)]methyl]piperidine]",activity at 1.6 µM,[1],48 ± 1.9%
"Cc1ccc(C(c2ccc(C)cc2)(c2ccc(C)cc2)N2CCCCC2)cc1 [Compound 27, 1-[tris(4-methylphenyl)methyl]piperidine]",activity at 3.1 µM,[1],47.5 ± 0.6%
"c1ccc(C(c2ccccc2)N2CCCC2)cc1 [Compound 28, 1-(diphenylmethyl)pyrrolidine]",activity at 60 µM,"Homo sapiens, Melanocyte, Table 2, addition amount 60 μM",77.3 ± 5.6%
"Cc1ccc(C(c2ccc(C)cc2)N2CCCC2)cc1 [Compound 29, 1-[bis(4-methylphenyl)methyl]pyrrolidine]",activity at 20 µM,[1],49 ± 1.9%
"CCNC(c1ccccc1)(c1ccccc1)c1ccccc1 [Compound 30, N-(triphenylmethyl)-N-ethylamine]",activity at 8 µM,[1],41.4 ± 0.7%
"COc1ccc(C(OCCO)(c2ccccc2)c2ccccc2)cc1 [Compound 31, 2-[[diphenyl(4-methoxyphenyl)]methyloxy]ethanol]",activity at 3.1 µM,[1],37.6 ± 3.3%
"COc1ccc(C(OCCO)(c2ccccc2)c2ccc(OC)cc2)cc1 [Compound 32, 2-[bis(4-methoxyphenyl)phenylmethyloxy]ethanol]",activity at 3.1 µM,[1],58.8 ± 7.1%
"COc1ccc(C(NCCO)(c2ccccc2)c2ccccc2)cc1 [Compound 33, 2-[[diphenyl(4-methoxyphenyl)]methylamino]ethanol]",activity at 5 µM,[1],67.7 ± 5.1%
"COc1ccc(C(NCCO)(c2ccccc2)c2ccc(OC)cc2)cc1 [Compound 34, 2-[[bis(4-methoxyphenyl)phenyl]methylamino]ethanol]",activity at 5 µM,[1],71.4 ± 1.9%
"COc1ccc(C(OCCN)(c2ccccc2)c2ccccc2)cc1 [Compound 35, 2-[[diphenyl (4-methoxyphenyl)]methyloxy]ethylamine]",activity at 5 µM,[1],80.4 ± 8.8%
"COc1ccc(C(OCCN)(c2ccccc2)c2ccc(OC)cc2)cc1 [Compound 36, 2-[[bis(4-methoxyphenyl)phenyl]methyloxy]ethylamine]",activity at 10 µM,[1],71.7 ± 5.1%
"OCCN(CCO)C(c1ccccc1)(c1ccccc1)c1ccccc1 [Compound 37, N,N-[bis(2-hydroxyethyl)]-N-(triphenylmethyl)amine]",activity at 4 µM,"Homo sapiens, Melanocyte, Table 2, addition amount 4.0 μM",69.6 ± 3.9%
"OCC(O)COC(c1ccccc1)(c1ccccc1)c1ccccc1 (stereo not shown) [Compound 38, 1,2-dihydroxy-3-(triphenylmethyloxy)propane]",activity at 8 µM,[1],75.6 ± 0.2%
"O=C(O)[C@H](CO)NC(c1ccccc1)(c1ccccc1)c1ccccc1 [Compound 39, N-(triphenylmethyl) serine]",activity at 8 µM,[1],54.9 ± 5.5%

# From patent US8846012B2, “Melanin production inhibitor” (Pola Chemical Industries Inc., priority 2008, dated 2014)
